From patent US20190314297A1, “COMBINATION THERAPY OF CBD AND COPAXONE” (TO PHARMACEUTICALS LLC, priority 2016, published 2019)
Entries after “also recorded” stand apart in the source; their conditions may differ. Like-named read-outs stand apart in the source and are kept apart here.

How the values were obtained:
EAE model in mice = assay: Suppression of PLP (139-151)-induced relapsing-remitting EAE, daily clinical score; format: in vivo, SJL/J female mice; details: monotherapy vs control (vehicle); CBD 5 mg/kg i.p., Copaxone 1 mg/mouse s.c., daily five times a week; FIG. 1-3
From the text: SJL/J female mice were purchased from Harlen. Mice at the age of 6-7 weeks old were used to the in the experiments described below. All the experiments were done in accordance with the protocol approved by the Ethics Committee of the Hebrew University of Jerusalem. The mice were housed in cages with free access to food and water. They were maintained in 12 hr. light/dark cycle at room temperature.
Mice were immunized with PLP (139-151) emulsified in CFA together with pertussis vaccine according to the method described in Hooke Laboratories protocols (http://hookelabs.com/protocols/eaeAISJL). PLP is used to induce relapsing-remitting (RR)-EAE model. In the EAE experiments, SJL/J female mice at an age of 6-7 weeks old were used. Mice were observed daily for the appearance of neurological paralytic symptoms (6-7 mice/group), and were scored in scale from 0-5 denoting as follows:
Raw p-value were obtained from exact one-tail Mann Whitney tests and adjusted for multiple comparisons (within each experiment) using Holm modification of the Bonferroni correction
(§1) Histology Following s.c. injection of PLP (139-151) mixed with CFA as well as two pertussis-toxin injections and appearance of paralysis signs in the mice (usually after 9-11 days after initiation of EAE) treatment of mice began.
The treatments were given daily, five times a week and usually continued for about 60 days. […]

[1] = test system: infiltration of immune cells into the spinal cord; assay: Histology of immune cell infiltration into the spinal cord in EAE mice (eosin/hematoxylin); format: in vivo, SJL female mice; details: sixty days following injection of PLP; vs control non-treated mice
Method: as §1
(§2) The treatments were given daily, five times a week and usually continued for about 60 days. GA were given s.c. (at an injection dose of 1 mg/mouse), and CBD at a dose of 5 mg/kg were administrated i.p. (intraperitoneal).
Studies of monotherapies (CBD or Copaxone) and the combination therapy (CBD plus Copaxone) also included histological studies of infiltration of immune cells into the spinal cord in EAE mice (i.e., MS core pathology).

[2] = test system: skin at the site of subcutaneous Copaxone injection; assay: Cutaneous wound at the site of repeated s.c. Copaxone injection in EAE mice; format: in vivo, SJL/J female mice
Method: as §2
In mice treated with the Copaxone only (2 out of 7 mice), a skin lesion developed on the back at the site of repeated Copaxone injections.

acute EAE [3] = details: oral GA, rats; cited from earlier work
acute EAE [4] = details: oral GA, mice; cited from earlier work
acute EAE [5] = details: oral GA, rhesus monkeys; cited from earlier work

Compound	clinical score (EAE model in mice)	infiltration of immune cells into the white section of the spinal cord [1]	skin lesions (cutaneous wound) at the injection site, in words ([2]; CBD 5 mg/kg i.p. with or without Copaxone 1 mg/mouse s.c.)	skin lesion developed at the site of repeated Copaxone injections (incidence) ([2]; Copaxone only, 1 mg/mouse s.c.)	effect on acute EAE (acute EAE [3])	effect on acute EAE (acute EAE [4])	effect on acute EAE (acute EAE [5])
C=C(C)[C@@H]1CCC(C)=C[C@H]1c1c(O)cc(CCCCC)cc1O [CBD, 2-[(1R,6R)-6-isopropenyl-3-methylcyclohex-2-en-1-yl]-5-pentylbenzene-1,3-diol]	significant decrease in clinical score; also recorded: significantly decreased clinical score	almost total reduction of such infiltration	No suchlesions were observed	–	–	–	–
Glatiramer acetate [Copaxone]	significantly decreased clinical score	almost total reduction of such infiltration	–	2 out of 7	suppress acute EAE	suppress acute EAE	suppress acute EAE
